According to ChEMBL document CHEMBL4265965, “Dichloroacetophenones targeting at pyruvate dehydrogenase kinase 1 with improved selectivity and antiproliferative activity: Synthesis and structure-activity relationships” (Bioorg Med Chem Lett, 2018):
pIC50: −log10 of the molar value. Activity calls are given as the source filed them. The calls are words filed in the database; no cut-off is given here.

Tests used:
A549 [1] = assay: Antiproliferative activity against human A549 cells assessed as inhibition of cell proliferation at 6 uM after 72 hrs by MTT assay relative to control; type: functional; settings: for inhibition at 6 µM: A549, 72 h
NCI-H1975 [2] = assay: Antiproliferative activity against human NCI-H1975 cells assessed as inhibition of cell proliferation at 12 uM after 72 hrs by MTT assay relative to control; type: functional; settings: for inhibition at 12 µM: NCI-H1975, 72 h
A549 [3] = assay: Antiproliferative activity against human A549 cells assessed as inhibition of cell proliferation at 2 uM after 72 hrs by MTT assay relative to control; type: functional; settings: for inhibition at 2 µM: A549, 72 h
NCI-H1650 [4] = assay: Antiproliferative activity against human NCI-H1650 cells assessed as inhibition of cell proliferation at 6 uM after 72 hrs by MTT assay relative to control; type: functional; settings: for inhibition at 6 µM: NCI-H1650, 72 h
NCI-H1975 [5] = assay: Antiproliferative activity against human NCI-H1975 cells assessed as inhibition of cell proliferation at 2 uM after 72 hrs by MTT assay relative to control; type: functional; settings: for inhibition at 2 µM: NCI-H1975, 72 h
NCI-H1650 [6] = assay: Antiproliferative activity against human NCI-H1650 cells assessed as inhibition of cell proliferation at 12 uM after 72 hrs by MTT assay relative to control; type: functional; settings: for inhibition at 12 µM: NCI-H1650, 72 h
[7] = target: T1, [Pyruvate dehydrogenase (acetyl-transferring)] kinase isozyme 1, mitochondrial (Homo sapiens, UniProt Q15118); assay: Inhibition of PDK1 in human NCI-H1975 cells assessed as reduction in pyruvate dehydrogenase phosphorylation at 10 uM after 24 hrs by Western blot analysis; type: cell-based
[8] = target: T1, [Pyruvate dehydrogenase (acetyl-transferring)] kinase isozyme 1, mitochondrial; assay: Inhibition of recombinant human N-terminal His6/Sumo-tagged PDK1 (29 to 436 residues) expressed in Escherichia coli BL21 at 1 uM by kinase-glo luminescence assay relative to control
A549 [9] = assay: Antiproliferative activity against human A549 cells assessed as inhibition of cell proliferation at 12 uM after 72 hrs by MTT assay relative to control; type: functional; settings: for inhibition at 12 µM: A549, 72 h
NCI-H1975 [10] = assay: Antiproliferative activity against human NCI-H1975 cells assessed as inhibition of cell proliferation at 6 uM after 72 hrs by MTT assay relative to control; type: functional; settings: for inhibition at 6 µM: NCI-H1975, 72 h
NCI-H1650 [11] = assay: Antiproliferative activity against human NCI-H1650 cells assessed as inhibition of cell proliferation at 2 uM after 72 hrs by MTT assay relative to control; type: functional; settings: for inhibition at 2 µM: NCI-H1650, 72 h
NCI-H1975 [12] = assay: Antiproliferative activity against human NCI-H1975 cells assessed as inhibition of cell proliferation after 72 hrs by MTT assay; type: functional, cell-based; settings: NCI-H1975, 72 h
Sus scrofa = organism: Sus scrofa; assay: Inhibition of porcine PDK1 assessed as activation of pyruvate dehydrogenase complex at 1 uM measured after 3 mins

SMILES | inhibition at 6 µM (A549 [1]) | inhibition at 12 µM (NCI-H1975 [2]) | inhibition at 2 µM (A549 [3]) | inhibition at 6 µM (NCI-H1650 [4]) | inhibition at 2 µM (NCI-H1975 [5]) | inhibition at 12 µM (NCI-H1650 [6]) | inhibition [7] | inhibition [8] | inhibition at 12 µM (A549 [9]) | inhibition at 6 µM (NCI-H1975 [10]) | inhibition at 2 µM (NCI-H1650 [11]) | inhibition (A549 [3]) | inhibition (Sus scrofa) | inhibition (NCI-H1650 [11]) | also measured
CC1CCOc2ccc(C(=O)C(Cl)Cl)cc21 (stereo not drawn) | 77.7% | 99.6% | 24.1% | 67.3% | 69.4% | 94.8% | Active | 19.7 to 67.9% | 93.4% | 98% | 27% |  |  |  | 
O=C(c1ccc(OCCCBr)cc1)C(Cl)Cl | 80.1% | 99.9% | 21.7% | 65.4% | 69.8% | 92.5% | Active | 19.7 to 67.9% | 98.4% | 99.6% | 27.9% |  |  |  | 
COc1ccc(C(=O)C(Cl)Cl)cc1Cl | 56.7% | 99.4% | 17% | 78.5% | 51.7% | 98.7% | Active | 47.1% | 88.4% | 95.8% | 36.5% |  |  |  | pIC50 (NCI-H1975 [12]): 5.70
CCCCOc1ccc(C(=O)C(Cl)Cl)cc1 | 46.6% | 97.4% | 20.9% | 70.7% | 46.5% | 97.6% | Active | 19.7 to 67.9% | 67% | 92% | 30.7% |  |  |  | 
CCCCCOc1ccc(C(=O)C(Cl)Cl)cc1 | 60.4% | 98.5% | 20.2% | 81.5% | 57.5% | 98.2% | Active | 19.7 to 67.9% | 85% | 96.6% | 32.8% |  |  |  | 
CCCOc1ccc(C(=O)C(Cl)Cl)cc1 | 58.9% | 97.7% | 8.4% | 66% | 44.3% | 95.3% | Active | 19.7 to 67.9% | 79.7% | 93% | 27.4% |  |  |  | pIC50 (NCI-H1975 [12]): 5.70
O=C(c1ccc(-c2ccccc2)cc1)C(Cl)Cl | 75.9% | 99.4% | 22.5% | 79.2% | 56.3% | 96.4% | Active | 19.7 to 67.9% | 91.2% | 90.3% | 42.2% |  |  |  | pIC50 (NCI-H1975 [12]): 5.70
CCCOc1ccc(C(=O)C(Cl)Cl)cc1[N+](=O)[O-] | 19.5% | 91.6% |  | 38% | 3.4% | 99.9% |  | Active | 68.4% | 37.8% | 7.6% | inactive | Active |  | 
CC(C)c1ccc(C(=O)C(Cl)Cl)cc1 | 65.8% | 96.7% | 24.4% | 65.3% | 60.1% | 91.2% | Active | 59.9% | 88.1% | 96.1% | 26.6% |  |  |  | 
O=C(c1cccc(CCl)c1)C(Cl)Cl | 99.5% | 99.5% | 73.3% | 100% | 99% | 100% |  | 15.1% | 100% | 99.3% | 97.6% |  |  |  | pIC50 (NCI-H1975 [12]): 6.70
O=C(Oc1ccccc1)C(Cl)Cl |  |  |  |  |  |  |  | inactive |  |  |  | inactive | inactive | inactive | inhibition (A549 [1]): inactive; inhibition (NCI-H1975 [2]): inactive; inhibition (NCI-H1650 [4]): inactive; inhibition (NCI-H1975 [5]): inactive; inhibition (NCI-H1650 [6]): inactive; inhibition (A549 [9]): inactive; inhibition (NCI-H1975 [10]): inactive
O=C(CCl)c1cccnc1 |  |  |  |  |  |  |  | inactive |  |  |  | inactive | inactive | inactive | inhibition (A549 [1]): inactive; inhibition (NCI-H1975 [2]): inactive; inhibition (NCI-H1650 [4]): inactive; inhibition (NCI-H1975 [5]): inactive; inhibition (NCI-H1650 [6]): inactive; inhibition (A549 [9]): inactive; inhibition (NCI-H1975 [10]): inactive
CC(C)Oc1ccc(C(=O)C(Cl)(Cl)Cl)cc1[N+](=O)[O-] |  | 35.6% |  |  |  | 24.7% |  | Active | 15.9% |  |  | inactive | Active | inactive | inhibition (A549 [1]): inactive; inhibition (NCI-H1650 [4]): inactive; inhibition (NCI-H1975 [5]): inactive; inhibition (NCI-H1975 [10]): inactive
O=C(Nc1ccccc1)C(Cl)Cl | 14.6% | 30.2% |  | 15.5% |  | 21.3% |  | inactive | 20.3% | 21.6% |  | inactive | inactive | inactive | inhibition (NCI-H1975 [5]): inactive
CCCCCOc1ccc(C(=O)C(Cl)Cl)cc1[N+](=O)[O-] | 80.2% | 98.1% | 32.3% | 36.6% | 62.9% | 68% |  | Active | 96.9% | 93.2% |  |  | Active | inactive | 
